Assay results reported in the NIST ThermoML archive (doi:10.1016/j.tca.2009.05.014).
± gives the expanded uncertainty stated by the source.

Details: Crystal, Rate of evaporation

CC(C)(C)C(=O)/C=C(\[O-])C(C)(C)C.CC(C)(C)C(=O)/C=C(\[O-])C(C)(C)C.[Cu+2] [bis(2,2,6,6-tetramethyl-3,5-heptanedionato)copper(II)]
Details	vapor or sublimation pressure [kPa]
375 K	4e-05 ± 4e-06
385 K	7.2e-05 ± 7e-06
395 K	0.000151 ± 1.5e-05
404 K	0.000343 ± 3.4e-05
415 K	0.00072 ± 7.2e-05
425 K	0.001456 ± 0.00015
435 K	0.002373 ± 0.00024
